Assay results taken from the NIST ThermoML archive (doi:10.1016/j.fluid.2015.09.010).
± gives the expanded uncertainty stated by the source.

Conditions: Gas, single sinker densimeter

SMILES: F/C=C/C(F)(F)F [trans-1,3,3,3-tetrafluoropropene]
- mass density (263.17 K, 142.52 kPa): 7.8479 ± 0.023 kg/m3
- mass density (263.18 K, 101.66 kPa): 5.5042 ± 0.023 kg/m3
- mass density (263.18 K, 124.43 kPa): 6.8014 ± 0.023 kg/m3
- mass density (268.16 K, 105.74 kPa): 5.6056 ± 0.022 kg/m3
- mass density (268.16 K, 137.08 kPa): 7.3536 ± 0.023 kg/m3
- mass density (268.17 K, 168.48 kPa): 9.1497 ± 0.023 kg/m3
- mass density (273.11 K, 102.98 kPa): 5.3503 ± 0.022 kg/m3
- mass density (273.12 K, 145.02 kPa): 7.6483 ± 0.022 kg/m3
- mass density (273.12 K, 198.33 kPa): 10.6692 ± 0.023 kg/m3
- mass density (278.14 K, 103.54 kPa): 5.2727 ± 0.022 kg/m3
- mass density (278.14 K, 152.59 kPa): 7.8948 ± 0.022 kg/m3
- mass density (278.14 K, 200.35 kPa): 10.5385 ± 0.023 kg/m3
- mass density (278.14 K, 249.93 kPa): 13.3894 ± 0.023 kg/m3
- mass density (283.14 K, 106.17 kPa): 5.3014 ± 0.021 kg/m3
- mass density (283.15 K, 201.69 kPa): 10.3769 ± 0.022 kg/m3
- mass density (283.15 K, 290.13 kPa): 15.3909 ± 0.024 kg/m3
- mass density (283.15 K, 303.37 kPa): 16.1704 ± 0.024 kg/m3
- mass density (288.11 K, 185.99 kPa): 9.3221 ± 0.021 kg/m3
- mass density (288.12 K, 261.69 kPa): 13.4297 ± 0.023 kg/m3
- mass density (288.12 K, 338.42 kPa): 17.8195 ± 0.024 kg/m3
- mass density (288.13 K, 107.78 kPa): 5.2812 ± 0.021 kg/m3
- mass density (288.13 K, 356.37 kPa): 18.8808 ± 0.024 kg/m3
- mass density (293.16 K, 106.73 kPa): 5.1257 ± 0.021 kg/m3
- mass density (293.16 K, 210.6 kPa): 10.407 ± 0.021 kg/m3
- mass density (293.16 K, 302.68 kPa): 15.3725 ± 0.023 kg/m3
- mass density (293.16 K, 408.92 kPa): 21.5052 ± 0.024 kg/m3

SMILES: CCC [propane]
- mass density (258.14 K, 101.23 kPa): 2.1368 ± 0.0093 kg/m3
- mass density (258.15 K, 201.63 kPa): 4.3743 ± 0.0095 kg/m3
- mass density (258.15 K, 276.61 kPa): 6.1388 ± 0.0098 kg/m3
- mass density (263.16 K, 209.67 kPa): 4.4546 ± 0.0094 kg/m3
- mass density (263.17 K, 101.09 kPa): 2.0885 ± 0.0091 kg/m3
- mass density (263.17 K, 314.8 kPa): 6.8907 ± 0.0097 kg/m3
- mass density (268.14 K, 251.5 kPa): 5.2792 ± 0.0091 kg/m3
- mass density (268.15 K, 101.59 kPa): 2.0567 ± 0.009 kg/m3
- mass density (268.16 K, 297.13 kPa): 6.3169 ± 0.0098 kg/m3
- mass density (268.16 K, 386.83 kPa): 8.4369 ± 0.0099 kg/m3
- mass density (273.14 K, 250.22 kPa): 5.1361 ± 0.0093 kg/m3
- mass density (273.15 K, 101.64 kPa): 2.0179 ± 0.0088 kg/m3
- mass density (273.15 K, 101.65 kPa): 2.0177 ± 0.0088 kg/m3
- mass density (273.15 K, 462.55 kPa): 10.0438 ± 0.0098 kg/m3
- mass density (278.14 K, 283.52 kPa): 5.7427 ± 0.0093 kg/m3
- mass density (278.14 K, 542.76 kPa): 11.76 ± 0.0099 kg/m3
- mass density (278.15 K, 105.47 kPa): 2.0544 ± 0.0087 kg/m3
- mass density (283.13 K, 101.63 kPa): 1.942 ± 0.0085 kg/m3
- mass density (283.13 K, 284.93 kPa): 5.6533 ± 0.0089 kg/m3
- mass density (283.13 K, 452.56 kPa): 9.3303 ± 0.0097 kg/m3
- mass density (283.13 K, 615.83 kPa): 13.2515 ± 0.01 kg/m3
- mass density (288.21 K, 421.87 kPa): 8.433 ± 0.0093 kg/m3
- mass density (288.21 K, 538.6 kPa): 11.0628 ± 0.0099 kg/m3
- mass density (288.22 K, 101.88 kPa): 1.9105 ± 0.0083 kg/m3
- mass density (288.22 K, 217.75 kPa): 4.1713 ± 0.0084 kg/m3
- mass density (288.22 K, 322.62 kPa): 6.3129 ± 0.0088 kg/m3
- mass density (288.22 K, 653.34 kPa): 13.8134 ± 0.01 kg/m3
- mass density (293.1 K, 803.62 kPa): 17.2181 ± 0.011 kg/m3
- mass density (293.12 K, 106.57 kPa): 1.9628 ± 0.0083 kg/m3
- mass density (293.12 K, 340.88 kPa): 6.5552 ± 0.0084 kg/m3
